The values below come from publication PMC6824041, “gem-Difluorobisarylic derivatives: design, synthesis and anti-inflammatory effect” (BMC Chemistry, 2019).

In the assay the target is T1, cyclooxygenase-1 (COX-1) (Homo sapiens, UniProt P23219).
T1 construct: gene PTGS1; human recombinant COX-1 stably overexpressed in HEK-293 cells
Briefly: PGE2 production from added arachidonic acid in HEK-293 cells overexpressing human COX-1. The class given is cell-based.

T1 sequence (P23219 24-599): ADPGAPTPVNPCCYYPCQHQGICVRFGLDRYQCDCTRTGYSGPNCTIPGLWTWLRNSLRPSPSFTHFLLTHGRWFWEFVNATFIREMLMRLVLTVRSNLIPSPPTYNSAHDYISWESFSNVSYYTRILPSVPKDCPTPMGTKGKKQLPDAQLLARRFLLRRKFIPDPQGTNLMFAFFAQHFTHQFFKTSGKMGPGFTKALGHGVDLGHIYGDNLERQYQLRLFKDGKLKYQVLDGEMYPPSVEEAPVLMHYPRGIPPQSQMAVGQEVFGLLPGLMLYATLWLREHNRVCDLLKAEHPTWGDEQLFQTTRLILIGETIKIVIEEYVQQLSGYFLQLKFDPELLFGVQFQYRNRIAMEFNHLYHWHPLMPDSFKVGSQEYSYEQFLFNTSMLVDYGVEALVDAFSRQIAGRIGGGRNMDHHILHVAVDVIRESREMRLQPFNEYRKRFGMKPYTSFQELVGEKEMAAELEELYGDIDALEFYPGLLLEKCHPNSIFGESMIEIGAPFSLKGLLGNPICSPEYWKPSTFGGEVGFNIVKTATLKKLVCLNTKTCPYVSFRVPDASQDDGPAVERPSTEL

For the compound `Cc1cc(C(=O)O)c(C(F)(F)c2cccc(C(C)C)c2)cc1C` [A5, 2-(difluoro(3-isopropylphenyl)methyl)-4,5-dimethylbenzoic acid], the IC50 was found to be 5.2 µM.

For orientation: IC50 means the concentration at which inhibition is half-maximal. High values mean lower potency, low ones higher potency.
